Tests used:
[1] = target: Voltage-gated inwardly rectifying potassium channel KCNH2 (Homo sapiens, UniProt Q12809); assay: Binding affinity to hERG by radioligand binding assay
[2] = Binding affinity to VMAT by radioligand binding assay
[3] = target: Sodium-dependent noradrenaline transporter (Homo sapiens, UniProt P23975); assay: Binding affinity to NET by radioligand binding assay
[4] = target: Muscarinic acetylcholine receptor; assay: Binding affinity to M receptor by radioligand binding assay; format: protein assay
[5] = target: Alpha-2A adrenergic receptor (Homo sapiens, UniProt P08913); assay: Binding affinity to alpha 2A adrenergic receptor by radioligand binding assay
Sequence of Alpha-2A adrenergic receptor (P08913 whole entry): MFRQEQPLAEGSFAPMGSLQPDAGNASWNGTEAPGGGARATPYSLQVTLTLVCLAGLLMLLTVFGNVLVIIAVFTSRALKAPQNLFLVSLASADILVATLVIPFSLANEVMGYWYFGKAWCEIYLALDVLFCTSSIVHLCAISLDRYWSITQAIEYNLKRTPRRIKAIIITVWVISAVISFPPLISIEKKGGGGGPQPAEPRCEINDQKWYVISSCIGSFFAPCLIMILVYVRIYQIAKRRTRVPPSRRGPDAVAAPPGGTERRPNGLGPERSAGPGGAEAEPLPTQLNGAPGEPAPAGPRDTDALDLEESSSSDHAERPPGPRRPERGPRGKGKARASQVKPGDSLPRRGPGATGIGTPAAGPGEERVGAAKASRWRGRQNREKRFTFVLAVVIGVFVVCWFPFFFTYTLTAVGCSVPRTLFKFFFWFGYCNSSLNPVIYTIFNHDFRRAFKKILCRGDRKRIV

[6] = target: Histamine H3 receptor (Homo sapiens, UniProt Q9Y5N1); assay: Binding affinity to histamine H3 receptor by radioligand binding assay
[7] = Binding affinity to V receptor by radioligand binding assay
[8] = target: Sigma non-opioid intracellular receptor 1 (Homo sapiens, UniProt Q99720); assay: Binding affinity to sigma1 opioid receptor by radioligand binding assay
Sequence of Sigma non-opioid intracellular receptor 1 (Q99720 whole entry): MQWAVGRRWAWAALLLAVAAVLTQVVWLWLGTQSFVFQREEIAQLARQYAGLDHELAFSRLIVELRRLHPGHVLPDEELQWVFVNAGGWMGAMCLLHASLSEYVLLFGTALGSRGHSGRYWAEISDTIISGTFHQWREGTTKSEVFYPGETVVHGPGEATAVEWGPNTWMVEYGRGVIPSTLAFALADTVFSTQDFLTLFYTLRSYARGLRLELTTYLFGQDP

[9] = target: Glutamate [NMDA] receptor; assay: Binding affinity to NMDA receptor by radioligand binding assay; format: protein-complex assay
[10] = target: Histamine H1 receptor (Homo sapiens, UniProt P35367); assay: Binding affinity to histamine H1 receptor by radioligand binding assay
[11] = target: Glutamate receptor ionotropic AMPA (Homo sapiens, UniProt P42261+P42262+P42263+P48058); assay: Binding affinity to AMPA receptor by radioligand binding assay; format: protein-complex assay
[12] = target: 5-hydroxytryptamine receptor 2B (Homo sapiens, UniProt P41595); assay: Binding affinity to 5HT2B receptor by radioligand binding assay
[13] = Binding affinity to NK receptor by radioligand binding assay
[14] = target: D(2) dopamine receptor (Homo sapiens, UniProt P14416); assay: Binding affinity to D2 dopamine receptor by radioligand binding assay
Sequence of D(2) dopamine receptor (P14416 whole entry): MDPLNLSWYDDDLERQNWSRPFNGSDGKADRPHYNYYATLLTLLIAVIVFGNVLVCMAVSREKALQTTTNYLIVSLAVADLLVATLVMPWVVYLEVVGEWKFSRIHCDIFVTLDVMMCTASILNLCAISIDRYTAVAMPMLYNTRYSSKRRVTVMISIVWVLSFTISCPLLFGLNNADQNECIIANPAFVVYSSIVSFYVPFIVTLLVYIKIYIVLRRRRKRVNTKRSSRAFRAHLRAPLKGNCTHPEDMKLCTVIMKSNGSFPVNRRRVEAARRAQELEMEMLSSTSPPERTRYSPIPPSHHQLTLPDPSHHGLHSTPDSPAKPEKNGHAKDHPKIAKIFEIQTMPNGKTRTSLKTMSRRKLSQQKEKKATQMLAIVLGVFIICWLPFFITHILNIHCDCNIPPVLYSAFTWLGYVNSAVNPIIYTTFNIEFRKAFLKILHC

[15] = target: T1, 5-hydroxytryptamine receptor 1A (Homo sapiens, UniProt P08908); assay: Binding affinity to 5HT1A receptor by radioligand binding assay
T1 sequence (P08908 whole entry): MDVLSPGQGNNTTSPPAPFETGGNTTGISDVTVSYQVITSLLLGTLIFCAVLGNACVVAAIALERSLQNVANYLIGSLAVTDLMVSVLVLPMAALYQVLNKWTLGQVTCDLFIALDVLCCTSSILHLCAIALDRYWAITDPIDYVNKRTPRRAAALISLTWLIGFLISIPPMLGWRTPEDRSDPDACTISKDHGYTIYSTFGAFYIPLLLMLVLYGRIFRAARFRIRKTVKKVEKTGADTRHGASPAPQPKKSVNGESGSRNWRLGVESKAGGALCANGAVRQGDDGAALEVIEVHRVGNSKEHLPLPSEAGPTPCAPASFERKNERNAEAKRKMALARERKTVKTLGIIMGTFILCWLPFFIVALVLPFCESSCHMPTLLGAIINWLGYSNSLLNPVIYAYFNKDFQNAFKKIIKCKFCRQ

[16] = system: Baboon; assay: Penetration through blood-brain barrier in baboon; format: ADME, organism-based, Papio; settings: in vivo
[17] = target: D(3) dopamine receptor (Homo sapiens, UniProt P35462); assay: Binding affinity to D3 receptor by radioligand binding assay
[18] = target: Sodium-dependent serotonin transporter (Homo sapiens, UniProt P31645); assay: Binding affinity to SERT by radioligand binding assay
[19] = target: Sodium-dependent dopamine transporter (Homo sapiens, UniProt Q01959); assay: Binding affinity to DAT by radioligand binding assay
[20] = target: Serotonin 3 (5-HT3) receptor; assay: Binding affinity to 5HT3 receptor by radioligand binding assay; format: protein-complex assay, Homo sapiens
[21] = target: 5-hydroxytryptamine receptor 7 (Homo sapiens, UniProt P34969); assay: Binding affinity to 5HT7 receptor by radioligand binding assay
[22] = target: Translocator protein (Homo sapiens, UniProt P30536); assay: Binding affinity to BZP receptor by radioligand binding assay
[23] = target: GABA-A receptor; anion channel; assay: Binding affinity to GABA receptor by radioligand binding assay; format: protein-complex assay
[24] = target: Delta-type opioid receptor (Homo sapiens, UniProt P41143); assay: Binding affinity to DOR by radioligand binding assay
Sequence of Delta-type opioid receptor (P41143 whole entry): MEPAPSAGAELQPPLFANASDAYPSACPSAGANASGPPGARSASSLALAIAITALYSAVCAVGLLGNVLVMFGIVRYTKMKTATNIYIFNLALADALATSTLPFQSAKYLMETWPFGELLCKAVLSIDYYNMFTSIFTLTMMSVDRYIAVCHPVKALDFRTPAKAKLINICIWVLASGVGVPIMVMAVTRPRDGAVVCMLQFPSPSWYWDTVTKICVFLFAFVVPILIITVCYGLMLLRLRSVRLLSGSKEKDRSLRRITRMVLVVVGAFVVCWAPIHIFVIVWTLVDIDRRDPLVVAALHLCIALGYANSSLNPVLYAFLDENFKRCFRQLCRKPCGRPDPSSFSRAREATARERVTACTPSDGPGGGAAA

[25] = Binding affinity to sodium channel by radioligand binding assay
[26] = target: Adenosine receptor A3 (Homo sapiens, UniProt P0DMS8); assay: Binding affinity to adenosine A3 receptor by radioligand binding assay
Sequence of Adenosine receptor A3 (P0DMS8 whole entry): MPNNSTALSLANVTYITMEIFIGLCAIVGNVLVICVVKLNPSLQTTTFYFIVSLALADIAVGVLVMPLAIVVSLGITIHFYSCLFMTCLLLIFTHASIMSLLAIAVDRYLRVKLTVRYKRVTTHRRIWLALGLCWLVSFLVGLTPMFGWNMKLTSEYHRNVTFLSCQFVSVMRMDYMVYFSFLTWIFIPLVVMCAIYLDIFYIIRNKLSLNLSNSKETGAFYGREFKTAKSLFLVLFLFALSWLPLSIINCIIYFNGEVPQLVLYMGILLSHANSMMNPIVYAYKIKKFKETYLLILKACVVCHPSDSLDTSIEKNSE

[27] = target: 5-hydroxytryptamine receptor 1B (Homo sapiens, UniProt P28222); assay: Binding affinity to 5HT1B receptor by radioligand binding assay
[28] = target: Glutamate receptor ionotropic kainate; assay: Binding affinity to KAR by radioligand binding assay; format: protein-complex assay
[29] = target: D(4) dopamine receptor (Homo sapiens, UniProt P21917); assay: Binding affinity to D4 receptor by radioligand binding assay
Sequence of D(4) dopamine receptor (P21917 whole entry): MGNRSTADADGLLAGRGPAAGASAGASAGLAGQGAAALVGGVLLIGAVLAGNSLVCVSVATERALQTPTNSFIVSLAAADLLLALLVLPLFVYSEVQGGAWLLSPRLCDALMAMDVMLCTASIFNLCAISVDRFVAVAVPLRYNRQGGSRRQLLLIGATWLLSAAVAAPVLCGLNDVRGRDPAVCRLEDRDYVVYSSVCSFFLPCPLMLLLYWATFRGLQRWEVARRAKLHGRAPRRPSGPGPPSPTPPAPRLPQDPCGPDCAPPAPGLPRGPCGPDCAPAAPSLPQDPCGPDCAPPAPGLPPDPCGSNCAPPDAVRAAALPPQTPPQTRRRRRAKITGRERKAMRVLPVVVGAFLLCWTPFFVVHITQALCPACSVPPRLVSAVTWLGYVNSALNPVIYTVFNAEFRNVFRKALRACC

[30] = target: Histamine H4 receptor (Homo sapiens, UniProt Q9H3N8); assay: Binding affinity to histamine H4 receptor by radioligand binding assay
[31] = target: T1, 5-hydroxytryptamine receptor 1A; assay: Agonist activity assessed by stimulation of [35S]GTP-gamma-S binding to human 5HT1A receptor expressed in CHO cells; format: functional, cell-based
[32] = target: 5-hydroxytryptamine receptor 1A (Homo sapiens) (UniProt P08908); assay: Agonist activity assessed by stimulation of [35S]GTP-gamma-S binding to human 5HT1A receptor expressed in CHO cells relative to 5-HT; format: functional, cell-based
Sequence of 5-hydroxytryptamine receptor 1A (Homo sapiens) (P08908 whole entry): as the sequence (P08908 whole entry) above

[33] = Binding affinity to mGluR by radioligand binding assay; parameters: species or system Homo sapiens
[34] = target: 5-hydroxytryptamine receptor 5A (Homo sapiens, UniProt P47898); assay: Binding affinity to 5HT5A receptor by radioligand binding assay
Sequence of 5-hydroxytryptamine receptor 5A (P47898 whole entry): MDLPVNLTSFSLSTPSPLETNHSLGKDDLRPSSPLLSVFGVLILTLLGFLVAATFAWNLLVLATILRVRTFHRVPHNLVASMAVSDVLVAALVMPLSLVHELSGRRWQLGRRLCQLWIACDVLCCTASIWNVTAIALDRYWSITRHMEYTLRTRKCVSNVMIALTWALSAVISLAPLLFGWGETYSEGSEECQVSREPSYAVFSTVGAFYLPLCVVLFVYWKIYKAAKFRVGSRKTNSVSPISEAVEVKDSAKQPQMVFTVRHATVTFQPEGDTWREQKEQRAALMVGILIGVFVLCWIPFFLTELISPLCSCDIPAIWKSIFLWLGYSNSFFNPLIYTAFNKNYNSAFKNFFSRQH

[35] = target: 5-hydroxytryptamine receptor 2A (Homo sapiens, UniProt P28223); assay: Binding affinity to 5HT2A receptor by radioligand binding assay
Sequence of 5-hydroxytryptamine receptor 2A (P28223 whole entry): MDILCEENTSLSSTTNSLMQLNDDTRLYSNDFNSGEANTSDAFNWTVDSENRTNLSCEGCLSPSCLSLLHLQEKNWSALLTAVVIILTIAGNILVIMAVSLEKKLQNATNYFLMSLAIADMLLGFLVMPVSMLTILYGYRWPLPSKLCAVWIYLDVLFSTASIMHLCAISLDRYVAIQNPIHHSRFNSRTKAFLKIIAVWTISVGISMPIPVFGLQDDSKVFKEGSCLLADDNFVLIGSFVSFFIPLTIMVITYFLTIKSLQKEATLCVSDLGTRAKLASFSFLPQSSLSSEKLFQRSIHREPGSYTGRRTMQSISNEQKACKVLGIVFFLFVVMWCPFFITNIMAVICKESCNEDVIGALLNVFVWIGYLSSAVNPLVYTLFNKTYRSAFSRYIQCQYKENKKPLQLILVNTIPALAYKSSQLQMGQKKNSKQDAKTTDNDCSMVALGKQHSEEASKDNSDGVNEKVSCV

[36] = Binding affinity to calcium channel by radioligand binding assay
[37] = target: Alpha-1B adrenergic receptor (Homo sapiens, UniProt P35368); assay: Binding affinity to alpha 1B adrenergic receptor by radioligand binding assay
Sequence of Alpha-1B adrenergic receptor (P35368 whole entry): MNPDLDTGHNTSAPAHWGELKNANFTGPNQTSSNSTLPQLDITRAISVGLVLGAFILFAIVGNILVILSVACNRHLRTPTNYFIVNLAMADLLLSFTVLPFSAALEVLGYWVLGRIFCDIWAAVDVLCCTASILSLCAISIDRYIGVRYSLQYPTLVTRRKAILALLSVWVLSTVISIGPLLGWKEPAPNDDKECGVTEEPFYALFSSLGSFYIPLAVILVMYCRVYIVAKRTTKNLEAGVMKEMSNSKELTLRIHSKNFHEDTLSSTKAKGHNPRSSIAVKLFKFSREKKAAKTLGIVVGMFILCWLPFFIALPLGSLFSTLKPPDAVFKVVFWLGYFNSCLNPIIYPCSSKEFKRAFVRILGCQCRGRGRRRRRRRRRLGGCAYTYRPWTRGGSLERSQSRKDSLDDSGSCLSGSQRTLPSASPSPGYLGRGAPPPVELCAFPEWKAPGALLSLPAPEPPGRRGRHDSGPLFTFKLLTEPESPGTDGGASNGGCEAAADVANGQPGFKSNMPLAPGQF

[38] = target: Adenosine A2 receptor (Homo sapiens, UniProt P29275+P29274); assay: Binding affinity to adenosine A2 receptor by radioligand binding assay; format: protein assay
[39] = target: 5-hydroxytryptamine receptor 6 (Homo sapiens, UniProt P50406); assay: Binding affinity to 5HT6 receptor by radioligand binding assay
[40] = target: Histamine H2 receptor (Homo sapiens, UniProt P25021); assay: Binding affinity to histamine H2 receptor by radioligand binding assay
[41] = target: Alpha-2C adrenergic receptor (Homo sapiens, UniProt P18825); assay: Binding affinity to alpha 2C adrenergic receptor by radioligand binding assay
Sequence of Alpha-2C adrenergic receptor (P18825 whole entry): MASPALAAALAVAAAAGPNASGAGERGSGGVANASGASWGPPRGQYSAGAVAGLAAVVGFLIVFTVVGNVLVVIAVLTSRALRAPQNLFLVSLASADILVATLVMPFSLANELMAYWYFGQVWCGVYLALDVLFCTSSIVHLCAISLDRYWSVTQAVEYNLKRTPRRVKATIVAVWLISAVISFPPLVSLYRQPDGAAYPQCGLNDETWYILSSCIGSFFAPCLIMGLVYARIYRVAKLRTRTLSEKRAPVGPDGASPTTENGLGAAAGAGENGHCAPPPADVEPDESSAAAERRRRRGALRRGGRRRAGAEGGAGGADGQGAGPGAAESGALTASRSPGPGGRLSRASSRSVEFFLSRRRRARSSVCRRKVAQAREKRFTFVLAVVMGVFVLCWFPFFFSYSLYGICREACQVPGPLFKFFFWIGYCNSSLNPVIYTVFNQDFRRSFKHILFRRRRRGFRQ

[42] = target: Adenosine receptor A1 (Homo sapiens, UniProt P30542); assay: Binding affinity to adenosine A1 receptor by radioligand binding assay
[43] = target: Alpha-1A adrenergic receptor (Homo sapiens, UniProt P35348); assay: Binding affinity to alpha 1A adrenergic receptor by radioligand binding assay
[44] = Binding affinity to EP receptor by radioligand binding assay
[45] = target: 5-hydroxytryptamine receptor 1E (Homo sapiens, UniProt P28566); assay: Binding affinity to 5HT1E receptor by radioligand binding assay
[46] = target: Kappa-type opioid receptor (Homo sapiens, UniProt P41145); assay: Binding affinity to KOR by radioligand binding assay
[47] = target: D(1B) dopamine receptor (Homo sapiens, UniProt P21918); assay: Binding affinity to D5 dopamine receptor by radioligand binding assay
[48] = target: ATP-dependent translocase ABCB1 (Homo sapiens, UniProt P08183); assay: Binding affinity to MDR1 by radioligand binding assay
[49] = target: Adenosine receptor A2a (Homo sapiens, UniProt P29274); assay: Binding affinity to adenosine […] receptor by radioligand binding assay
Sequence of Adenosine receptor A2a (P29274 whole entry): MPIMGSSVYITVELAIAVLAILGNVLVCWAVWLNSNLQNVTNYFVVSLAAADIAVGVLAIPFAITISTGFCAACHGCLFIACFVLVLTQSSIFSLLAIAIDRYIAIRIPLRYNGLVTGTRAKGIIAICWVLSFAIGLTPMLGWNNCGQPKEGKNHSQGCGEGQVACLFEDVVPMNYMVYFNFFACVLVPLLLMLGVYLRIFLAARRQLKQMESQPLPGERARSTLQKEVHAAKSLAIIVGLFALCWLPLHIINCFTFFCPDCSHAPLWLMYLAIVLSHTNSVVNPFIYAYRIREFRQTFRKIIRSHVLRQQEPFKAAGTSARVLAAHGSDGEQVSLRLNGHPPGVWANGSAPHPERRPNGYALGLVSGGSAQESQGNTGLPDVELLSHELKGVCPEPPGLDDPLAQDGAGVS

Ki [2]: > 10 µM | Ki [3]: > 10 µM | Ki [4]: > 10 µM | Ki [5]: 0.25 µM | Ki [6]: > 10 µM | Ki [7]: > 10 µM | Ki [8]: 0.18 µM | Ki [9]: > 10 µM | Ki [10]: 0.839 µM | Ki [11]: > 10 µM | Ki [12]: 0.0337 µM | Ki [13]: > 10 µM | Ki [14]: 2.58 µM | Ki [15]: 0.0011 µM | Activity [16]: Active | Ki [17]: > 10 µM | Ki [18]: > 10 µM | Ki [19]: > 10 µM | Ki [20]: > 10 µM | Ki [21]: 0.328 µM | Ki [22]: > 10 µM | Ki [23]: > 10 µM | Ki [24]: > 10 µM | Ki [25]: > 10 µM | Ki [26]: > 10 µM | Ki [27]: 0.228 µM | Ki [28]: > 10 µM | Ki [29]: > 10 µM | Ki [30]: > 10 µM | EC50 [31]: 0.0003 µM | Emax [32]: 95% | Ki [33]: > 10 µM | Ki [34]: > 10 µM | Ki [35]: 2.1 µM | Ki [36]: > 10 µM | Ki [37]: 0.378 µM | Ki [38]: > 10 µM | Ki [39]: > 10 µM | Ki [40]: 2.13 µM | Ki [41]: 0.109 µM | Ki [42]: > 10 µM | Ki [43]: 0.413 µM | Ki [44]: > 10 µM | Ki [45]: > 10 µM | Ki [46]: > 10 µM | Ki [47]: > 10 µM | Ki [48]: > 10 µM | Ki [49]: > 10 µM
Structure (SMILES): COc1cccc(N2CCN(CCCCn3ncc(=O)n(C)c3=O)CC2)c1
Ki [1]: > 10 µM
